Consider one compound from patent US20250361221A1, “SOLID STATE FORMS OF PALTUSOTINE AND PROCESS FOR PREPARATION THEREOF” (ASSIA CHEMICAL INDUSTRIES LTD., priority 2022, published 2025).

Holding throughout (format): physicochemical
Series [1] in a line: Thermal stability: heating up to 100° C. for 30 minutes (XRPD). Particulars: Heating 100° C. The protocol: (§1) X-ray diffraction was performed on X-Ray powder diffractometer: Bruker D8 Advance; CuKα radiation (λ=1.5418 Å); Lynx eye detector; laboratory temperature 22-25° C.; PMMA specimen holder ring with silicon low background. Prior to analysis, the samples were gently ground by means of mortar and pestle in order to obtain a fine powder. The ground sample was adjusted into a cavity of the sample holder and the surface of the sample was smoothed by means of a cover glass.
(§2) • Scan range: 2-40 degrees 2-theta; • Scan mode: continuous; • Step size: 0.05 degrees; • Time per step: 0.5 s; • Sample spin: 30 rpm; • Sample holder: PMMA specimen holder ring with silicon low background.
Samples of Paltusotine forms PL1 and PL11 were subjected to heating up to 100° C. for 30 minutes. XRPD analysis of the sample confirmed no change in the starting material (Table 4): […]

Series [2] can be described thus: Stability to compression: pressure of 2 tons in a hydraulic press (XRPD). Particulars: 2 tons/1 minute. The protocol:
as §1, §2
Samples of Paltusotine forms PL1 and PL11 were subjected to a pressure of 2 tons in a hydraulic press (Atlas® Autopress hydraulic press, set to 2 tons). XRPD analysis was performed on the samples after 1 minute.

Series [3] can be described thus: Storage stability at different relative humidities and temperatures, 6 months (XRPD). The note with it: for XRPD analysis results: 6 months. The protocol: as §1, §2
Samples of Paltusotine form PL1 was subjected to conditions of different relative humidities at different temperatures. XRPD analysis was performed on the samples after 6 months.

A short description of series [4]: Grinding experiments: strong grinding and solvent drop grinding (XRPD). Particulars: 2 minutes. The protocol:
as §1, §2
Samples of Paltusotine forms PL1 and PL11 were subjected to strong grinding, and to solvent drop grinding in water, ethanol and isopropanol. Grinding was carried out on the samples alone, or in the presence of ethanol or water. In these experiments, about 20 mg of the sample is placed in a mortar and ground with a pestle for 2 minutes. The solvent, when used, as added to the crystalline material before grinding, in a volume of 10 microlitres. XRPD analysis performed on each of the samples after the grinding experiment, confirmed no change in the starting material (Table 3): […]

SMILES strings stand for the structures.

As to `N#Cc1cccc(-c2ccc3ncc(-c4cc(F)cc(F)c4)c(N4CCC(N)CC4)c3c2)c1O` [Form PL1, Paltusotine], the “Result (XRPD analysis)” value in series [1] and in series [2] was “Stable” in each case. Further, the XRPD analysis results in series [3] (25° C., 60% RH) is on record as “No change”; in series [3] (40° C., 75% RH), “No change”; in series [4] (Solvent-drop grinding (ethanol), 10 microlitres), “No change”; in series [4] (Solvent-drop grinding (isopropanol), 10 microlitres) it was “No change”; in series [4] (Solvent-drop grinding (water), 10 microlitres) it was “No change”; in series [4] (Strong grinding, mortar and pestle) it was “No change”. Moreover, the “time stable after exposure to high and low relative humidity at different temperatures” value in series [3] (25° C./60% RH and 40° C./75% RH) was “at least 6 months”.
